We go through one compound from US10517846B2, “Pharmaceutical compositions for treating acne” (Dr. Reddy's Laboratories Ltd., priority 2016, dated 2019).

The conditions of data set [1]: cited from earlier work.
For data set [2] the following is noted: oral; patients with severe acne; cited from earlier work.
A short description of data set [3]: Solubility studies for isotretinoin using non-aqueous solvents. The data set is classed as physicochemical. As to conditions: organic solvent or mixture. As to the method:
Solubility studies for isotretinoin were carried out using non-aqueous solvents as mentioned in table 1.

≈ marks a conversion by molar mass, not a printed value.

Broadly, the solubility is how much of the substance goes into solution per volume. In the case of `CC1=C(/C=C/C(C)=C/C=C/C(C)=C\C(=O)O)C(C)(C)CCC1` [isotretinoin, (2Z,4E,6E,8E)-3,7-dimethyl-9-(2,6,6-trimethylcyclohex-1-en-1-yl)nona-2,4,6,8-tetraenoic acid], the water solubility entry in data set [1] was “very low water solubility”. The “long-term remission, share of patients” value in data set [2] is listed as “about 80%”. The solubility in data set [3] (solvent Acetone) turned out to be 30 mg/mL (≈ 99.9 mM); in data set [3] (solvent Dichloromethane), 12 mg/mL (≈ 39.9 mM); in data set [3] (solvent Ethanol), 10 mg/mL (≈ 33.3 mM); in data set [3] (solvent Isopropyl alcohol), 12 mg/mL (≈ 39.9 mM); in data set [3] (solvent Methanol) it was 10 mg/mL (≈ 33.3 mM).
